In US11219614B2, “Combination cancer therapy with pentaaza macrocyclic ring complex and ascorbate compound” (Galera Labs, LLC, priority 2016, dated 2022):

System: tongue carcinoma cells (Cal27)
Experiment: clonogenic cell survival assay, Cal27
Assay type: cell-based, Human
Procedure: (§1) FIG. 4 is a plot showing the surviving fraction of Cal27 cells for increasing amounts of ascorbate, as determined by a clonogenic cell survival assay used to determine the effects of the compound alone and in combination with a pentaaza macrocyclic ring complex (GC4419). Human tongue carcinoma cells (Cal27) were exponentially grown in culture for 48 hours. The cells were then treated with 5-20 μM GC4419 for 24 hours, and ascorbate (Asc) for one hour, followed by immediate clonogenic assay. The cells were trypsinized, counted, replated at varying lower densities and incubated.
(§2) FIG. 6 is a graph showing the surviving fraction of Cal 27 cells treated with ascorbate and combinations with including ascorbate. The effects of ascorbic acid (AA) in combination with a pentaaza macrocyclic ring complex (GC4419) was tested in a clonogenic cell survival assay to determine the effects of the combination alone and when paired with ionizing radiation. Human tongue carcinoma cells (Cal27) were exponentially grown in culture for 48 hours. The cells were then treated with 5 μM GC4419 for 3 hours and 10 pmol/cell ascorbate for 1 hour, either alone, in combination (GC+AA), and/or paired with a dose of ionizing radiation (2 Gy). After the ionizing radiation dose, the cells were trypsinized, counted, replated at varying lower densities and incubated. Plates were stained and counted for clonogenic survival assays.
as §1, with “The effect” for “FIG. 4 is a plot showing the surviving fraction”, “ascorbate was tested in” for “Cal27 cells for increasing amounts of ascorbate, as determined by”, “assay” for “assay used”, “incubated. Plates were stained and counted for clonogenic survival assays.” for “incubated.”
as §2, with “The” for “FIG. 6 is a graph showing the surviving fraction of Cal 27 cells treated with ascorbate and combinations with including ascorbate. The”

Compound: [Cl][Mn][Cl].c1cc2nc(c1)CN[C@H]1CCCC[C@@H]1NCCN[C@H]1CCCC[C@@H]1NC2 [GC4419]
- synergistic activity of the combination (5 μM GC4419 3 h + 10 pmol/cell ascorbate 1 h (GC+AA), FIG. 6): more than merely an additive effect
- cell killing (clonogenic survival) (5 μM GC4419 3 h + 10 pmol/cell ascorbate 1 h (GC+AA), compared to control and to either alone, FIG. 6): significant enhancements in cell killing
- sensitization to ionizing radiation (GC+AA+IR (2 Gy) compared to IR 2Gy alone, FIG. 6): sensitized the cancer cells to radiation
- cell killing (clonogenic survival) (ascorbate 1 h in combination with 5, 10 or 20 μM GC4419 24 h, compared to monotherapies, FIG. 4): significant enhancements in cell killing
